Reference: patent publication US20030187048A1, “Method for inhibiting skin lesion formation using histamine as the active ingredient” (priority 1991, published 2003)
Where “and” joins values, the source holds several entries; their conditions need not be identical. Equal entries are not always repeated. Where two headings read alike, the source gives them in different places.

Tests used:
[1] = system: cold sore (herpes labialis) lesions
[2] = system: Giant Papillary Conjunctivitis
Protocol: The composition of the present invention includes initial preparation of a gel base by adding 0.8% CARBOPOL 940, which is a vinyl polymer, to distilled water. This mixture was allowed to stand for several hours until the polymer was wetted and a gel was formed. This mixture then was blended by means of a ordinary high speed mixer, such as a Lightning Labmaster II until a homogenous mixture is formed. At this point, a neutralizing and emulsifying agent such as an amino alcohol was added, forming an emulsion. […] This composition then was applied topically to various types of lesions, as subsequently described. […] Propylparaben or methylparaben may be used as a preservative. For “unidose” dispensers containing only two to three drops, no preservatives are used, as it is known that preservatives in ophthalmic solutions frequently cause undesirable side effects. The term semi-synthetic water soluble polymer as used herein includes hydroxy methylcellulose or carboxy methylcellulose. Carbopol is widely available in different viscosities.
Treatment consisted of topical ophthalmic application of both ophthalmic solution concentrations to their randomly assigned patients 2 times a day for 5 days. […] Each patient was clinically evaluated at 48 hours and 120 hours following the initiation of treatment for 2 parameters of tissue damage associated with Giant Papillary Conjunctivitis. In addition, each patient was asked to evaluate subjectively 2 symptoms associated with Giant Papillary conjunctivitis 48 hours and 120 hours after treatment initiation. The percent reduction from the initial presentation of each of the parameters of tissue damage and the initial presentation for each additional symptom evaluated was calculated from 48 and 120 hour post treatment initiation data.
Patients were randomly assigned to one of two active levels being evaluated.
Clinical evaluation was performed at 48 hours and 120 hours post treatment initiation. Each patient was asked to subjectively evaluate 2 additional symptoms associated with Giant Papillary Conjunctivitis by rating each symptom on a scale of 0 to 5 with 0 representing no evidence of symptom and 5 representing the greatest evidence of the symptom ever by the patient. Clinical evaluation of tissue damage parameters was also done using the same scale of 0 to 5. Patient compliance with the treatment regimen and the use of other medications was also evaluated.

[3] = 0.0067% ophth soln, 48 hr, per patient
[4] = 0.0067% ophth soln, 120 hr, per patient
[5] = 0.0067% ophth soln, scale 0 to 5, per patient

In the case of `NCCc1c[nH]cn1` [IEP, 1H-imidazole-4-ethanamine,phosphate], the “Mean percentage decay rate of lesions, Conc. Mean” value (“Mean percentage decay rate” below) ([1]; 0.00083% gel, 4 patients) is reported as 23.1%, the “Average % reduction in lesions from original size” value (“Average % reduction in lesions” below) ([1]; 0.00083% gel, 48 Hours) is reported as 14.0% and the “Average % reduction in lesions” value ([1]; 0.00083% gel, 72 Hours) is reported as 27.6%. For the same compound, the “Average % reduction in lesions” value ([1]; 0.00083% gel, 96 Hours) was 44.3%, the “Burning, average percent reduction of original symptom” value (“Burning, average percent reduction” below) ([1]; 0.00083% gel, Day 1) was 20.9% and the “Itching, average percent reduction of original symptom” value (“Itching, average percent reduction” below) ([1]; 0.00083% gel, Day 1) was 41.7%. The “Pain, average percent reduction of original symptom” value (“Pain, average percent reduction” below) ([1]; 0.00083% gel, Day 1) was 34.2%, the “Spreading, average percent reduction of original symptom” value (shortened to “Spreading, average percent reduction”) ([1]; 0.00083% gel, Day 1) was 0% and the “Swelling, average percent reduction of original symptom” value (“Swelling, average percent reduction” below) ([1]; 0.00083% gel, Day 1) was 10.4%. The “Burning, average percent reduction” value ([1]; 0.00083% gel, Day 2) was 66.7%, the “Itching, average percent reduction” value ([1]; 0.00083% gel, Day 2) was 47.8% and the “Pain, average percent reduction” value ([1]; 0.00083% gel, Day 2) was 51.7%. For the same compound, the “Spreading, average percent reduction” value ([1]; 0.00083% gel, Day 2) was 0%, the “Swelling, average percent reduction” value ([1]; 0.00083% gel, Day 2) was 37.5% and the “Burning, average percent reduction” value ([1]; 0.00083% gel, Day 3) was 58.3%. For the same compound, the “Itching, average percent reduction” value ([1]; 0.00083% gel, Day 3) was 16.7%, the “Pain, average percent reduction” value ([1]; 0.00083% gel, Day 3) was 51.7% and the “Spreading, average percent reduction” value ([1]; 0.00083% gel, Day 3) was 11.1%. The “Burning, average percent reduction” value ([1]; 0.00083% gel, Day 4) was 75.0%, the “Itching, average percent reduction” value ([1]; 0.00083% gel, Day 4) was 11.1% and the “Pain, average percent reduction” value ([1]; 0.00083% gel, Day 4) was 65.0%. The “Spreading, average percent reduction” value ([1]; 0.00083% gel, Day 4) was 22.2%, the “Swelling, average percent reduction” value ([1]; 0.00083% gel, Day 4) was 75.0% and the “Burning, average percent reduction” value ([1]; 0.00083% gel, Day 5) was 77.8%. The “Itching, average percent reduction” value ([1]; 0.00083% gel, Day 5) was 41.7%, the “Pain, average percent reduction” value ([1]; 0.00083% gel, Day 5) was 64.4% and the “Spreading, average percent reduction” value ([1]; 0.00083% gel, Day 5) was 50.0%. For the same compound, the “Swelling, average percent reduction” value ([1]; 0.00083% gel, Day 5) was 55.6%, the “Burning, average percent reduction” value ([1]; 0.00083% gel, Day 6) was 66.7% and the “Itching, average percent reduction” value ([1]; 0.00083% gel, Day 6) was 75.0%. The “Pain, average percent reduction” value ([1]; 0.00083% gel, Day 6) was 66.7%, the “Spreading, average percent reduction” value ([1]; 0.00083% gel, Day 6) was 66.7% and the “Swelling, average percent reduction” value ([1]; 0.00083% gel, Day 6) was 0%. The “Mean percentage decay rate” value ([1]; 0.0033% gel, 5 patients) was 24.1%, the “Average % reduction in lesions” value ([1]; 0.0033% gel, 24 Hours) was 11.8% and the “Average % reduction in lesions” value ([1]; 0.0033% gel, 48 Hours) was 44.6%. For the same compound, the “Average % reduction in lesions” value ([1]; 0.0033% gel, 72 Hours) was 57.8%, the “Average % reduction in lesions” value ([1]; 0.0033% gel, 96 Hours) was 61.6% and the “Burning, average percent reduction” value ([1]; 0.0033% gel, Day 1) was 21.7%. For the same compound, the “Itching, average percent reduction” value ([1]; 0.0033% gel, Day 1) was 23.4%, the “Spreading, average percent reduction” value ([1]; 0.0033% gel, Day 1) was 50.0% and the “Burning, average percent reduction” value ([1]; 0.0033% gel, Day 2) was 37.5%. For the same compound, the “Itching, average percent reduction” value ([1]; 0.0033% gel, Day 2) was 55.0%, the “Spreading, average percent reduction” value ([1]; 0.0033% gel, Day 2) was 50.0% and the “Swelling, average percent reduction” value ([1]; 0.0033% gel, Day 2) was 45.4%. The “Burning, average percent reduction” value ([1]; 0.0033% gel, Day 3) was 62.5%, the “Itching, average percent reduction” value ([1]; 0.0033% gel, Day 3) was 58.5% and the “Pain, average percent reduction” value ([1]; 0.0033% gel, Day 3) was 33.3%. For the same compound, the “Spreading, average percent reduction” value ([1]; 0.0033% gel, Day 3) was 16.7%, the “Swelling, average percent reduction” value ([1]; 0.0033% gel, Day 3) was 55.8% and the “Burning, average percent reduction” value ([1]; 0.0033% gel, Day 4) was 68.8%. The “Itching, average percent reduction” value ([1]; 0.0033% gel, Day 4) was 75.0%, the “Pain, average percent reduction” value ([1]; 0.0033% gel, Day 4) was 66.8% and the “Spreading, average percent reduction” value ([1]; 0.0033% gel, Day 4) was 100%. The “Swelling, average percent reduction” value ([1]; 0.0033% gel, Day 4) was 55.9%, the “Burning, average percent reduction” value ([1]; 0.0033% gel, Day 5) was 100% and the “Itching, average percent reduction” value ([1]; 0.0033% gel, Day 5) was 82.5%. For the same compound, the “Pain, average percent reduction” value ([1]; 0.0033% gel, Day 5) was 66.7%, the “Spreading, average percent reduction” value ([1]; 0.0033% gel, Day 5) was 100% and the “Swelling, average percent reduction” value ([1]; 0.0033% gel, Day 5) was 65.0%. The “Burning, average percent reduction” value ([1]; 0.0033% gel, Day 6) was 87.5%, the “Itching, average percent reduction” value ([1]; 0.0033% gel, Day 6) was 100% and the “Pain, average percent reduction” value ([1]; 0.0033% gel, Day 6) was 83.4%. For the same compound, the “Swelling, average percent reduction” value ([1]; 0.0033% gel, Day 6) was 66.7%, the “Mean percentage decay rate” value ([1]; 0.0067% gel, 4 patients) was 54.4% and the “Average % reduction in lesions” value ([1]; 0.0067% gel, 24 Hours) was 37.5%. For the same compound, the “Average % reduction in lesions” value ([1]; 0.0067% gel, 48 Hours) was 67.0%, the “Average % reduction in lesions” value ([1]; 0.0067% gel, 72 Hours) was 86.2% and the “Average % reduction in lesions” value ([1]; 0.0067% gel, 96 Hours) was 98.9%. For the same compound, the “Burning, average percent reduction” value ([1]; 0.0067% gel, Day 1) was 50.0%, the “Itching, average percent reduction” value ([1]; 0.0067% gel, Day 1) was 50.0% and the “Pain, average percent reduction” value ([1]; 0.0067% gel, Day 1) was 66.7%. The “Spreading, average percent reduction” value ([1]; 0.0067% gel, Day 1) was 66.7%, the “Swelling, average percent reduction” value ([1]; 0.0067% gel, Day 1) was 50.0% and the “Burning, average percent reduction” value ([1]; 0.0067% gel, Day 2) was 100%. For the same compound, the “Itching, average percent reduction” value ([1]; 0.0067% gel, Day 2) was 100%, the “Pain, average percent reduction” value ([1]; 0.0067% gel, Day 2) was 83.4% and the “Spreading, average percent reduction” value ([1]; 0.0067% gel, Day 2) was 100%. For the same compound, the “Swelling, average percent reduction” value ([1]; 0.0067% gel, Day 2) was 83.3%, the “Burning, average percent reduction” value ([1]; 0.0067% gel, Day 3) was 100% and the “Itching, average percent reduction” value ([1]; 0.0067% gel, Day 3) was 100%. For the same compound, the “Pain, average percent reduction” value ([1]; 0.0067% gel, Day 3) was 55.6%, the “Spreading, average percent reduction” value ([1]; 0.0067% gel, Day 3) was 100% and the “Swelling, average percent reduction” value ([1]; 0.0067% gel, Day 3) was 54.2%. For the same compound, the “Burning, average percent reduction” value ([1]; 0.0067% gel, Day 4) was 100%, the “Itching, average percent reduction” value ([1]; 0.0067% gel, Day 4) was 75.0% and the “Pain, average percent reduction” value ([1]; 0.0067% gel, Day 4) was 55.6%. For the same compound, the “Spreading, average percent reduction” value ([1]; 0.0067% gel, Day 4) was 100%, the “Swelling, average percent reduction” value ([1]; 0.0067% gel, Day 4) was 61.7% and the “Burning, average percent reduction” value ([1]; 0.0067% gel, Day 5) was 100%. The “Itching, average percent reduction” value ([1]; 0.0067% gel, Day 5) was 100%, the “Pain, average percent reduction” value ([1]; 0.0067% gel, Day 5) was 100% and the “Spreading, average percent reduction” value ([1]; 0.0067% gel, Day 5) was 100%. The “Swelling, average percent reduction” value ([1]; 0.0067% gel, Day 5) was 66.7%, the “Spreading, average percent reduction” value ([1]; 0.0067% gel, Day 6) was 100% and the “Swelling, average percent reduction” value ([1]; 0.0067% gel, Day 6) was 100%. The “Reducing lesion size over time vs placebo (analysis of variance)” value ([1]; 0.0067% treatment vs placebo, p<0.05) was “significantly more effective”, the Untoward reactions ([1]; in vivo) was “no untoward reactions” and the “Exudation, Percent Reduction from Pre-Treatment Value” [2, 3] was 50.0% and 75.0% and 100.0%. The “Itch/Burn, Percent Reduction from Pre-Treatment Value” [2, 3] was 75.0% and 80.0% and 100.0%, the “Redness, Percent Reduction from Pre-Treatment Value” [2, 3] was 50.0% and 66.67% and 100.0% and the “Contact Lens Tolerance, Percent Reduction from Pre-Treatment Value” [2, 4] was 100.0%. The “Exudation, Percent Reduction from Pre-Treatment Value” [2, 4] was 100.0%, the “Itch/Burn, Percent Reduction from Pre-Treatment Value” [2, 4] was 100.0% and the “Redness, Percent Reduction from Pre-Treatment Value” [2, 4] was 100.0%. The “Conjunctival Injection (redness), Value at 120 Hours” value [2, 5] was 0, the “Contact Lens Tolerance, Value at 120 hours” value [2, 5] was 0 and the “Exudation, Value at 120 Hours” value [2, 5] was 0. For the same compound, the “Itching and Burning, Value at 120 hours” value [2, 5] was 0, the “Difference in percent reduction of tissue damage parameters and symptoms vs placebo ophthalmic solution” value ([2]; 0.0067% ophthalmic solution, except contact lens tolerance at 48 hours) was “either significant (p<0.05) or highly significant (p<.O1)” and the “Decrease in size of the papilla” value ([2]; end of the 5 day treatment period, any of the patients) was “a significant decrease in size of the papilla was not noted”. For the same compound, the Untoward effects ([2]; in vivo) was “no untoward effects”.
